Test results as given in publication PMC10890502, “Prevention of Protease-Induced Degradation of Desmoplakin via Small Molecule Binding” (Journal of Personalized Medicine, 2024).
Positions count from the first letter of the chain named. Where a name gives a salt, the structure may show the parent alone. Read-outs that look alike come from different tables or passages of the source.

Tests used:
Test in all cases: biochemical
sDSP (DSP178–627) [1] = biological target: T1, sDSP (DSP178–627) (Homo sapiens, UniProt P15924, S442F); set-up: FITC-sDSP degradation by calpain (1:20), fluorescence polarization after 60 min, per cent of calpain-only control; conditions: degradation rate of DSP S442F by calpain; read-out: % of control remaining
T1 construct: gene DSP; N-terminal spectrin repeat/SH3 fragment, residues 178-627; pGEX-1 GST fusion cut with thrombin, E. coli BL21(DE3); fluorescein-5-maleimide label on exposed cysteines (C405, C524)
T1 sequence (P15924 178-627 S442F): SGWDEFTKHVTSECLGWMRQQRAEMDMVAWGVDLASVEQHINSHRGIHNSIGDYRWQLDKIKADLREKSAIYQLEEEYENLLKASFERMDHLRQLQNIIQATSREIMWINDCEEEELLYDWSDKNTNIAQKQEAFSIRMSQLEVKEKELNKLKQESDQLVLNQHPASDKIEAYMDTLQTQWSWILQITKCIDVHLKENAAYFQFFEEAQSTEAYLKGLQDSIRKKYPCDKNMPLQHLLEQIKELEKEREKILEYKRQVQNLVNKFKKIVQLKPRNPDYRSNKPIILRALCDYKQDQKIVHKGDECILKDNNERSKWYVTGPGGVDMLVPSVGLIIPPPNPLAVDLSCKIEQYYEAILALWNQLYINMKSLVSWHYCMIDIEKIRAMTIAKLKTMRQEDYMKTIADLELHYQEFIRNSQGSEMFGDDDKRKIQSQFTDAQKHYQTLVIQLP
Experimental: (§1) Fluorescence Polarization (FP) assays were conducted in […] format using a BioTek Synergy H4 plate reader with polarization capacity (Agilent; Savage, MD, USA). All samples were run at 25 °C using PBS pH 7.4, 1 mM DTT, 10 mM CaCl2, 5% DMSO, and […] FITC- DSP178–627, with 500 μM of each drug. Trypsin, chymotrypsin, or calpain at either 1:50, 1:50, or 1:20 concentration was added directly before data collection with an average void time of 2 min. Control experiments in each plate were conducted in triplicate and consisted of DSP178–627 + DMSO + protease as a positive control and DSP178–627 + DMSO + [compound left out] + protease as a negative control. Only plates that had functional positive and negative controls were used in data analysis. Samples were excited at 485 nm, and polarization was monitored at 528 nm. Data were collected at 5 min increments for 1–3 h. […] Therefore, we next tested whether these 62 compounds also prevent wildtype and variant DSP degradation in the presence of calpain. […] (A) Normalized fluorescent polarization of WT and sDSP variants in the presence of a 1:20 ratio of calpain plus 500 μM drug, as compared to calpain alone (black) (B) Identity and chemical structure of the six best-performing compounds.

sDSP (DSP178–627) [2] = biological target: T2, sDSP (DSP178–627) (Homo sapiens, UniProt P15924); set-up: FITC-sDSP degradation by calpain (1:20), fluorescence polarization after 60 min, per cent of calpain-only control; conditions: degradation rate of DSP WT by calpain; read-out: % of control remaining
T2 construct: gene DSP; N-terminal spectrin repeat/SH3 fragment, residues 178-627; pGEX-1 GST fusion cut with thrombin, E. coli BL21(DE3); fluorescein-5-maleimide label on exposed cysteines (C405, C524)
T2 sequence (P15924 178-627): T1 sequence (P15924 178-627 S442F) with F265S
Experimental: as §1

sDSP (DSP178–627) [3] = biological target: T3, sDSP (DSP178–627) (Homo sapiens, UniProt P15924, R451G); set-up: FITC-sDSP degradation by calpain (1:20), fluorescence polarization after 60 min, per cent of calpain-only control; conditions: degradation rate of DSP R451G by calpain; read-out: % of control remaining
T3 construct: gene DSP; N-terminal spectrin repeat/SH3 fragment, residues 178-627; pGEX-1 GST fusion cut with thrombin, E. coli BL21(DE3); fluorescein-5-maleimide label on exposed cysteines (C405, C524)
T3 sequence (P15924 178-627 R451G): T1 sequence (P15924 178-627 S442F) with F265S, R274G
Experimental: as §1

sDSP S507F = biological target: T4, sDSP S507F (Homo sapiens, UniProt P15924, S507F); set-up: FITC-sDSP degradation by calpain (1:20), fluorescence polarization after 60 min, per cent of calpain-only control; conditions: degradation rate of DSP S507F by calpain; read-out: % of control remaining
T4 construct: gene DSP; N-terminal fragment, residues 178-627
Experimental: as §1

sDSP (DSP178–627) [4] = biological target: T1, sDSP (DSP178–627); set-up: FITC-sDSP S442F degradation by trypsin (1:50), fluorescence polarization after 60 min, per cent of protease-only control; conditions: degradation rate of DSP S442F by trypsin; read-out: % of control remaining
Experimental: Fluorescence Polarization (FP) assays were conducted in […] format using a BioTek Synergy H4 plate reader with polarization capacity (Agilent; Savage, MD, USA). All samples were run at 25 °C using PBS pH 7.4, 1 mM DTT, 10 mM CaCl2, 5% DMSO, and […] FITC- DSP178–627, with 500 μM of each drug. Trypsin, chymotrypsin, or calpain at either 1:50, 1:50, or 1:20 concentration was added directly before data collection with an average void time of 2 min. Control experiments in each plate were conducted in triplicate and consisted of DSP178–627 + DMSO + protease as a positive control and DSP178–627 + DMSO + [compound left out] + protease as a negative control. Only plates that had functional positive and negative controls were used in data analysis. Samples were excited at 485 nm, and polarization was monitored at 528 nm. Data were collected at 5 min increments for 1–3 h. A mutation that partially occludes the DSP calpain cleavage site rescues DSP protein levels. We next assessed whether protease-dependent cleavage can also be blocked by small molecules. We screened 2496 FDA-approved drugs for their ability to prevent trypsin-dependent cleavage of sDSP S442F in our FP assay (Figure 3A). […] No change in fluorescence polarization after an hour is indicative of 0% protein degradation rate, as occurs in the [compound left out] positive control. […] (A) sDSP S442F degradation in the presence of trypsin plus 2496 compounds from the Cayman chemical “FDA library”. A degradation rate of 100% indicates the same desmoplakin degradation rate with and without the addition of 500 μM drug while a 0% rate indicates no degradation, as judged by fluorescent polarization values after 1 h. A trypsin-only control and a trypsin + [compound left out] control is indicated. Protection (red lines) was arbitrarily set between 33% and −10%. […] (B) Example of how the data in A was generated.

T4 sequence (P15924 whole entry S507F, the tested form may be a part): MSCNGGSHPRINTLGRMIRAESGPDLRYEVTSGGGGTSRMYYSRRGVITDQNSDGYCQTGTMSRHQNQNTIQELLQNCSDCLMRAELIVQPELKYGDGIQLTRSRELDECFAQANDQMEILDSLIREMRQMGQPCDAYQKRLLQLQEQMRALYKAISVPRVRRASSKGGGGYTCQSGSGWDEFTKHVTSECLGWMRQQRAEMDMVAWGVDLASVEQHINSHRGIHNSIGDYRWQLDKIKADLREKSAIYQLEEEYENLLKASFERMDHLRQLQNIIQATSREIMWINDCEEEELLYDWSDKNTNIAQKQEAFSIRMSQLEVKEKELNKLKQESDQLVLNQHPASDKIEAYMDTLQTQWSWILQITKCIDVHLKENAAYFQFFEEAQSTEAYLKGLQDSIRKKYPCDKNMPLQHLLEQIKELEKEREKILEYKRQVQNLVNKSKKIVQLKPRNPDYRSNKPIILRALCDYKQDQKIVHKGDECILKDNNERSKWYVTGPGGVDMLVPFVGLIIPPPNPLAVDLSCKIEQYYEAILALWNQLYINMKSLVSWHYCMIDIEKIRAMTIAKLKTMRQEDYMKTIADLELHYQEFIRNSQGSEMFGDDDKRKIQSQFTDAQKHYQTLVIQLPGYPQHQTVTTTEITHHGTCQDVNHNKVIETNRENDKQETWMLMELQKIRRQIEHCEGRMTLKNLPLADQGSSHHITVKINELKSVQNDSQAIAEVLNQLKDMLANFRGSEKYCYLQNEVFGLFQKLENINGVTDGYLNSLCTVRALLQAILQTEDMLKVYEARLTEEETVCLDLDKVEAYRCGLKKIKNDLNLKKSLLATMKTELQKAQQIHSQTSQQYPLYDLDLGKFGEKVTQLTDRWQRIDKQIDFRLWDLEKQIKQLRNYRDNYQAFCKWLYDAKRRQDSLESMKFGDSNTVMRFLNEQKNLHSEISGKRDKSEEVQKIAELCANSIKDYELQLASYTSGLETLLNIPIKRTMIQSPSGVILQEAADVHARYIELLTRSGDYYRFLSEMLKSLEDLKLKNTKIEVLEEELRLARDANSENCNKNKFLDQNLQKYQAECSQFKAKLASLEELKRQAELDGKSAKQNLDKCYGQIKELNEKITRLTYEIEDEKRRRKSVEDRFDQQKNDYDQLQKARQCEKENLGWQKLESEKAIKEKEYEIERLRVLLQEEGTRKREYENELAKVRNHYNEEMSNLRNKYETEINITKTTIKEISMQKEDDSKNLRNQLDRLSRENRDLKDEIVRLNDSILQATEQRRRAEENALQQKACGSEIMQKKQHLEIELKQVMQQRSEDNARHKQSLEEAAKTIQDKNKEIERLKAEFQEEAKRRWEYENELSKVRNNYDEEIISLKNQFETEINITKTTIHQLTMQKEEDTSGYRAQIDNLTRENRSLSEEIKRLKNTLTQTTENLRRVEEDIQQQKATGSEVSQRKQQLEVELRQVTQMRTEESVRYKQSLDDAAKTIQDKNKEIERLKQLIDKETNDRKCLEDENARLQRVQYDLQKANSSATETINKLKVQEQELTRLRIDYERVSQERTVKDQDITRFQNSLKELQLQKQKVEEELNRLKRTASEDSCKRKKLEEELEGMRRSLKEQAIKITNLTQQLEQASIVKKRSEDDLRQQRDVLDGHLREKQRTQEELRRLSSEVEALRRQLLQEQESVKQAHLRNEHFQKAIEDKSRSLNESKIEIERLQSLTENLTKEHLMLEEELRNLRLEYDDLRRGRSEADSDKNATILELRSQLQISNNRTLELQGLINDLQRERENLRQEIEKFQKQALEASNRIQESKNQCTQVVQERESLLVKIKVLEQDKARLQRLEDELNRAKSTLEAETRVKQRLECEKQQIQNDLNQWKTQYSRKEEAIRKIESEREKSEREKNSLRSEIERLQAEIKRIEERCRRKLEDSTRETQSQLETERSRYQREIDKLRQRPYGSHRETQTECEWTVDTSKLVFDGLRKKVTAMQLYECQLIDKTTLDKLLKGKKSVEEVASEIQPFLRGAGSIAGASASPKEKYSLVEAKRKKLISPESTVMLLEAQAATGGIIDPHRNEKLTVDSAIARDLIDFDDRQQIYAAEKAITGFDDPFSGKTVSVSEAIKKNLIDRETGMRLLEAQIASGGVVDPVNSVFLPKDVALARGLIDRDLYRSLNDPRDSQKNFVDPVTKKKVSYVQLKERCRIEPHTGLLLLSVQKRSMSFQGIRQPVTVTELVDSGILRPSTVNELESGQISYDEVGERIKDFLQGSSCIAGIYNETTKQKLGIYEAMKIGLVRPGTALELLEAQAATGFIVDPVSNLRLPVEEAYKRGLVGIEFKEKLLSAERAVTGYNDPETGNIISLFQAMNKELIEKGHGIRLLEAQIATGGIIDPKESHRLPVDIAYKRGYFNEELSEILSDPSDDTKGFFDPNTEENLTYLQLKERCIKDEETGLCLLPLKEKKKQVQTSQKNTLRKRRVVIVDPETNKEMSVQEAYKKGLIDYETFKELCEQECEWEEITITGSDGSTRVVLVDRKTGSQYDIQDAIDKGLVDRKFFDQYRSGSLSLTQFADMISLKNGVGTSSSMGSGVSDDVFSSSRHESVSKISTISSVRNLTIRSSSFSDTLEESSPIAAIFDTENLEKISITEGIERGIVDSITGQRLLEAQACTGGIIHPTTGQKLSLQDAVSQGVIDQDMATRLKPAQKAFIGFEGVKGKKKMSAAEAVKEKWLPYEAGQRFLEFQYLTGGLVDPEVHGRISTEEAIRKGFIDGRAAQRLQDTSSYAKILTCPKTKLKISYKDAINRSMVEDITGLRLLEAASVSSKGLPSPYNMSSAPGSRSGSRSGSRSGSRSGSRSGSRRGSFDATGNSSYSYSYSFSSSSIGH

Structure (SMILES)	remaining activity at 500 µM (sDSP (DSP178–627) [1])	remaining activity at 500 µM (sDSP (DSP178–627) [2])	remaining activity at 500 µM (sDSP (DSP178–627) [3])	remaining activity at 500 µM (sDSP S507F)	remaining activity at 500 µM (sDSP (DSP178–627) [4])
CNC(=O)c1c(F)cccc1Nc1nc(Nc2cc3c(cc2OC)CCN3C(=O)CN(C)C)nc2[nH]ccc12 [GSK1838705A]	23%	35%	34%	24%	32%
Cn1cc(-c2ccc(F)c(C(F)(F)F)c2)nc1C1CCN(c2ncnc3[nH]ncc23)CC1 [LY2584702]	-40%	67%	15%	84%	18%
CC(C)=CCC/C(C)=C/CC/C(C)=C/CSc1ccccc1C(=O)O [salirasib]	29%	32%	-5%	26%	-8%
NC1(Cc2ccc(Cl)cc2)CCN(c2ncnc3[nH]ccc23)CC1 [CCT128930]	86%	54%	32%	20%	20%
CN1CCN(C2=Nc3ccccc3Oc3ccc(Cl)cc32)CC1 [Loxipine Succinate]	101%	-8%	-41%	107%	1%
O=C(NC1CCN(CCCCC2(C(=O)NCC(F)(F)F)c3ccccc3-c3ccccc32)CC1)c1ccccc1-c1ccc(C(F)(F)F)cc1 [Lomitapide]	62%	118%	40%	4%	32%
CCCCc1ncc(/C=C(\Cc2cccs2)C(=O)O)n1Cc1ccc(C(=O)O)cc1 [eprosarten mesylate]	26%	30%	33%	31%	32%
CC/C=C\C/C=C\C/C=C\C/C=C\C/C=C\C/C=C\CCC(=O)O [Docosahexaenoic Acid]	-19%	-12%	118%	104%	32%
CCCCCCCCCCCCCCCC(=O)NCCO [palmitoylethanolamide]	-3%	22%	8%	3%	26%
CCCCCCCCCCCCOS(=O)(=O)O [SDS]	21%	24%	-20%	-30%	18%
C=C(c1ccc(C(=O)O)cc1)c1cc2c(cc1C)C(C)(C)CCC2(C)C [Bexarotene]	84%	81%	39%	4%	26%
CCCCCCCCc1ccc(CCC(N)(CO)CO)cc1 [Fingolimod]	70%	35%	-13%	32%	-1%
CCCCc1oc2ccc(NS(C)(=O)=O)cc2c1C(=O)c1ccc(OCCCN(CCCC)CCCC)cc1 [Dronedarone HCl]	0%	143%	20%	25%	23%
CC(=O)O[C@H]1C(=O)[C@@]2(C)[C@H]([C@H](OC(=O)c3ccccc3)[C@]3(O)C[C@H](OC(=O)[C@H](O)[C@@H](NC(=O)c4ccccc4)c4ccccc4)C(C)=C1C3(C)C)[C@]1(OC(C)=O)CO[C@@H]1C[C@@H]2O [Taxol]	87%	48%	38%	34%	31%
CCN(CC)CC#CCOC(=O)C(O)(c1ccccc1)C1CCCCC1 (stereo not shown) [Oxybutynin chloride]	-5%	91%	31%	77%	24%
Fc1ccc([C@@H]2CCNC[C@H]2COc2ccc3c(c2)OCO3)cc1 [Paraxetine]	-3%	-8%	26%	133%	20%
Cc1ccc(NC(=O)c2ccc(CN3CCN(C)CC3)cc2)cc1Nc1nccc(-c2cccnc2)n1 [Imatinib]	62%	-6%	4%	108%	-3%
